Laboratory results: the supplement of paper PMC10307832

What was measured:
Assay in all cases: relative viability (nuclei count vs DMSO), 5 days (fraction); higher = more cells survive
[1] = compound: C[C@@H](C(=O)N[C@@H](C1CCCCC1)C(=O)N2CCC[C@H]2C(=O)N[C@@H]3[C@@H](CC4=CC=CC=C34)OCC#CC#CCO[C@@H]5CC6=CC=CC=C6[C@@H]5NC(=O)[C@@H]7CCCN7C(=O)[C@H](C8CCCCC8)NC(=O)[C@H](C)NC)NC [AZD5582] + COc1cccc2cc(-c3nc([C@H]4CC[C@H](C(=O)O)CC4)n4ncnc(N)c34)[nH]c12 [OSI-027] (partner 0.5 µM)
Outline: (§1)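 Relative viability is defined as nuclei in treated wells over nuclei in vehicle wells. Duplicate plates were run and medians reported. Lung cancer cell lines in 1536-well plates were dosed by pin tool one day after seeding, with one drug or with a fixed anchor-drug dose plus five library-drug doses (not always all listed) in √10 steps, and nuclei were counted after 5 days.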

[2] = compound: C[C@@H](C(=O)N[C@@H](C1CCCCC1)C(=O)N2CCC[C@H]2C(=O)N[C@@H]3[C@@H](CC4=CC=CC=C34)OCC#CC#CCO[C@@H]5CC6=CC=CC=C6[C@@H]5NC(=O)[C@@H]7CCCN7C(=O)[C@H](C8CCCCC8)NC(=O)[C@H](C)NC)NC [AZD5582] + CS(=O)(=O)N1CCN(Cc2cc3nc(-c4cccc5[nH]ncc45)nc(N4CCOCC4)c3s2)CC1 [Pictilisib] (partner 1 µM)
Outline: as §1

[3] = compound: Cn1nnc2c(C(N)=O)ncn2c1=O [Temozolomide] + CS(=O)(=O)CCNCc1ccc(-c2ccc3ncnc(Nc4ccc(OCc5cccc(F)c5)c(Cl)c4)c3c2)o1 [Lapatinib] (partner 2 µM)
Outline: as §1

[4] = compound: Cn1nnc2c(C(N)=O)ncn2c1=O [Temozolomide] + Cc1nc(Nc2ncc(C(=O)Nc3c(C)cccc3Cl)s2)cc(N2CCN(CCO)CC2)n1 [Dasatinib] (partner 0.075 µM)
Outline: as §1

Row | Cell Line | relative viability ([1]; first compound 0.001581 µM) | relative viability ([1]; first compound 0.005 µM) | relative viability ([1]; first compound 0.01581 µM) | relative viability ([1]; first compound 0.05 µM) | relative viability ([2]; first compound 0.001581 µM) | relative viability ([2]; first compound 0.005 µM) | relative viability ([2]; first compound 0.01581 µM) | relative viability ([2]; first compound 0.05 µM) | relative viability ([3]; first compound 0.2 µM) | relative viability ([3]; first compound 0.6325 µM) | relative viability ([3]; first compound 2 µM) | relative viability ([3]; first compound 6.325 µM) | relative viability ([3]; first compound 20 µM) | relative viability ([4]; first compound 0.2 µM) | relative viability ([4]; first compound 0.6325 µM) | relative viability ([4]; first compound 2 µM) | relative viability ([4]; first compound 6.325 µM) | relative viability ([4]; first compound 20 µM)
1 | HCC-15 | 0.555 | 0.617 | 0.504 | 0.636 | 0.566 | 0.596 | 0.621 | 0.509 | 0.91 | 0.87 | 0.931 | 0.829 | 0.892 | 0.74 | 0.699 | 0.625 | 0.627 | 0.642
2 | EPLC-272H | 0.121 |  | 0.274 | 0.0867 | 0.115 | 0.0891 | 0.216 | 0.0826 | 1.12 | 1.05 | 1.01 | 0.798 | 0.858 | 0.368 | 0.411 | 0.413 | 0.337 | 0.267
3 | UMC-11 | 0.469 | 0.53 | 0.476 | 0.454 | 0.722 | 0.842 | 0.648 | 0.666 | 1.09 | 1.06 | 1.09 | 0.894 | 0.685 | 0.567 | 0.469 | 0.536 | 0.489 | 0.442
4 | HARA | 0.414 | 0.544 | 0.362 | 0.307 | 0.553 | 0.494 | 0.381 | 0.338 | 0.777 | 0.721 | 0.975 | 0.658 | 0.732 | 0.238 | 0.301 | 0.309 | 0.29 | 0.23
5 | NCI-H2170 | 0.653 | 0.759 | 0.683 | 0.866 | 0.3 | 0.352 | 0.28 | 0.319 |  | 0.28 | 0.295 | 0.264 | 0.247 |  | 0.677 | 0.655 | 0.503 | 0.259
6 | 201T | 0.721 | 0.831 | 0.675 | 0.492 | 0.697 | 0.733 | 0.703 | 0.808 | 1.07 | 1.06 | 1.03 | 1.02 | 1.03 | 0.584 | 0.523 | 0.539 | 0.57 | 0.565
7 | NCI-H1944 | 0.369 | 0.428 | 0.412 | 0.446 | 0.344 | 0.389 | 0.297 | 0.389 | 0.835 | 0.831 | 0.871 | 0.843 | 0.799 | 0.218 | 0.196 | 0.223 | 0.213 | 0.192
8 | H3255 | 0.627 | 0.582 | 0.514 | 0.544 | 0.472 | 0.454 | 0.392 | 0.39 |  | 0.243 | 0.233 | 0.376 | 0.241 |  | 0.406 | 0.283 | 0.263 | 0.202
9 | NCI-H1437 | 0.787 | 0.893 | 0.77 | 0.94 | 0.439 | 0.452 | 0.48 | 0.409 | 0.8 | 0.817 | 0.822 | 0.875 | 0.975 | 0.388 | 0.438 | 0.45 | 0.4 | 0.393
